Where only a bound is given, the exact number is not on record here.

Here are results for 21 compounds from ChEMBL document CHEMBL4000245, “Discovery and biological evaluation of some (1H-1,2,3-triazol-4-yl)methoxybenzaldehyde derivatives containing an anthraquinone moiety as potent xanthine oxidase inhibitors” (Bioorg Med Chem Lett, 2017).

Series [1] concerns the target T1, Xanthine dehydrogenase/oxidase (Bos taurus, UniProt P80457). Briefly: Inhibition of bovine xanthine oxidase assessed as reduction in uric acid levels at 50 uM using xanthine as substrate after 120 mins by spectrophotometry. The following applies: cattle, 2 h.
For series [2], the target named is T1, Xanthine dehydrogenase/oxidase. Briefly: Inhibition of bovine xanthine oxidase assessed as reduction in uric acid levels using xanthine as substrate after 120 mins by spectrophotometry.
For series [3] the target is unchanged. The series is described as follows: Potency index, ratio of allopurinol IC50 to compound IC50 for inhibition of bovine xanthine oxidase. Particulars: cattle.
For series [4] the target is unchanged. The series is described as follows: Mixed-type inhibition of bovine xanthine oxidase assessed as enzyme-inhibitor complex using xanthine as substrate after 60 secs by Lineweaver-Burk plot method.
Series [5] shares this target. Briefly: Mixed-type inhibition of bovine xanthine oxidase assessed as enzyme-inhibitor-substrate complex using xanthine as substrate after 60 secs by Lineweaver-Burk plot method.

T1 sequence (P80457 whole entry): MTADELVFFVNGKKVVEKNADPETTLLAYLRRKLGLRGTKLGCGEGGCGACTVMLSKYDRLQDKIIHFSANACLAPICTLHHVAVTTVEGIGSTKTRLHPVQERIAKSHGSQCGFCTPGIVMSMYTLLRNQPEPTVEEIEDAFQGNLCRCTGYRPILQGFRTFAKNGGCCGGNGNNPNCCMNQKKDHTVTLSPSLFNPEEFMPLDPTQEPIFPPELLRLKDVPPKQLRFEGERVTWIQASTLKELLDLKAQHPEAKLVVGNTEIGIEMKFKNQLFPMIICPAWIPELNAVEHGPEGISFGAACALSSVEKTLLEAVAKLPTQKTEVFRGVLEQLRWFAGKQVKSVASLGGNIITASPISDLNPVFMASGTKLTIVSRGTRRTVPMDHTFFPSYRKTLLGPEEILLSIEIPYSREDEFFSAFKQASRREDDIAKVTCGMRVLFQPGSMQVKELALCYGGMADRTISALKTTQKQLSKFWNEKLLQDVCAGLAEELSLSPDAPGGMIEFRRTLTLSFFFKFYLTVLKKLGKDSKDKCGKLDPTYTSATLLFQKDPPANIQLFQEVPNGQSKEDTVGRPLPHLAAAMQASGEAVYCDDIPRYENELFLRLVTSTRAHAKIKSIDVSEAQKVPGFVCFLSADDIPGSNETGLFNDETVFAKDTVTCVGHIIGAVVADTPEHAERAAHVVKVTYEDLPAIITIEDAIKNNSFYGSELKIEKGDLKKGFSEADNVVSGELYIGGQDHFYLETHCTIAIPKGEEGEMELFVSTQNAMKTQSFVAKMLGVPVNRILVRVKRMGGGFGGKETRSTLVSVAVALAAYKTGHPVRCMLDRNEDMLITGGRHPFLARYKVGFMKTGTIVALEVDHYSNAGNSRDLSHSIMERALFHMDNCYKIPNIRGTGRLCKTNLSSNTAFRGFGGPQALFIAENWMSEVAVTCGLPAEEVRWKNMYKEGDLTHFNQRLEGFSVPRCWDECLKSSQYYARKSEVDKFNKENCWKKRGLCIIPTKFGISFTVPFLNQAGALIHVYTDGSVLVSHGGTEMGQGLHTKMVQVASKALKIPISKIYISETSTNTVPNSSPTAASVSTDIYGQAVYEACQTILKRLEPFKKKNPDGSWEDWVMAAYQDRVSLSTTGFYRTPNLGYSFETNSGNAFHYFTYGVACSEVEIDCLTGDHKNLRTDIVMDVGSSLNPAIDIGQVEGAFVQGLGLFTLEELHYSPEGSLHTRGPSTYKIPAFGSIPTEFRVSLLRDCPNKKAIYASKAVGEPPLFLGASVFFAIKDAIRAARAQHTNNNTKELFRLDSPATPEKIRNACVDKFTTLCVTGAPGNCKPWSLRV

The inhibition is how much of the control response was suppressed. Take `CC(=O)Nc1ccc(OCc2cn(Cc3ccc4c(c3)C(=O)c3ccccc3C4=O)nn2)cc1`: the inhibition at 50 µM in series [1] is 20.1%.

As a reminder, the IC50 is the midpoint of a concentration-inhibition curve. Turning to `O=Cc1cc(F)ccc1OCc1cn(Cc2ccccc2)nn1`, the inhibition at 50 µM in series [1] stood at 83.4%. In addition, the half-inhibitory concentration (IC50) in series [2] was found to be 21.5 µM.

With `O=C1c2ccccc2C(=O)c2cc(Cn3cc(COc4c(Cl)cccc4Cl)nn3)ccc21`, the inhibition at 50 µM in series [1] is 12.7%.

Take `O=Cc1ccc(F)cc1OCc1cn(Cc2ccc3c(c2)C(=O)c2ccccc2C3=O)nn1`: the inhibition at 50 µM in series [1] is 70.8%. Moreover, the half-maximal inhibitory concentration (IC50) in series [2] stood at 6.5 µM.

What is called Ki is the equilibrium dissociation constant of an inhibitor or competing ligand from its target. In the case of `O=Cc1ccccc1OCc1cn(Cc2ccc3c(c2)C(=O)c2ccccc2C3=O)nn1`, the inhibition at 50 µM in series [1] came to 90.7%. Moreover, the IC50 in series [2] worked out at 0.6 µM. Besides, the “Ratio IC50” value in series [3] is given as more than 10. The values for the inhibitory constant (Ki) in series [4] and in series [5] were 0.57 µM and 0.94 µM, respectively.

As for `O=C(O)c1ccccc1OCc1cn(Cc2ccc3c(c2)C(=O)c2ccccc2C3=O)nn1`, the inhibition at 50 µM in series [1] is 24.2%.

Regarding `O=Cc1cc(Cl)ccc1OCc1cn(Cc2ccc3c(c2)C(=O)c2ccccc2C3=O)nn1`, in series [1], the inhibition at 50 µM turned out to be 61.1%. Moreover, the concentration for half-maximal inhibition (IC50) in series [2] stood at 46.5 µM.

Regarding `O=C1c2ccccc2C(=O)c2cc(Cn3cc(COc4ccccc4)nn3)ccc21`, the inhibition at 50 µM in series [1] was 18.4%.

For the compound `O=C1c2ccccc2C(=O)c2cc(Cn3cc(CO)nn3)ccc21`, the inhibition at 50 µM in series [1] was determined as 31%.

For the compound `COc1cc(C=O)cc(OC)c1OCc1cn(Cc2ccc3c(c2)C(=O)c2ccccc2C3=O)nn1`, in series [1], the inhibition at 50 µM is 70.3%. Moreover, in series [2], the IC50 was 16.8 µM.

For the compound `O=Cc1cc(Br)ccc1OCc1cn(Cc2ccc3c(c2)C(=O)c2ccccc2C3=O)nn1`, the inhibition at 50 µM in series [1] stood at 21.1%.

`N#Cc1ccc(OCc2cn(Cc3ccc4c(c3)C(=O)c3ccccc3C4=O)nn2)cc1`: the inhibition at 50 µM in series [1] was 7%.

For `CCCCCCn1cc(COc2ccccc2C=O)nn1`, the inhibition at 50 µM in series [1] worked out at 43.5%.

Regarding `CCN(CC)c1ccc(C=O)c(OCc2cn(Cc3ccc4c(c3)C(=O)c3ccccc3C4=O)nn2)c1`, the inhibition at 50 µM in series [1] amounted to 9.8%.

Take `CCCCCCn1cc(COc2ccc(F)cc2C=O)nn1`: the inhibition at 50 µM in series [1] amounted to 93%. Also, the IC50 in series [2] was 9 µM.

As for `O=Cc1cc(F)ccc1OCc1cn(Cc2ccc3c(c2)C(=O)c2ccccc2C3=O)nn1`, the inhibition at 50 µM in series [1] turned out to be 88%. The IC50 in series [2] stood at 0.8 µM. In addition, in series [3], the “Ratio IC50” value is on record as more than 10.

Turning to `O=Cc1cccc(OCc2cn(Cc3ccc4c(c3)C(=O)c3ccccc3C4=O)nn2)c1`, the inhibition at 50 µM in series [1] was found to be 77.2%. The 50% inhibitory concentration (IC50) in series [2] stood at 15.1 µM.

`O=Cc1ccccc1OCc1cn(Cc2ccccc2)nn1`: in series [1], the inhibition at 50 µM is 46.7%.

In the case of `O=Cc1ccc(OCc2cn(Cc3ccc4c(c3)C(=O)c3ccccc3C4=O)nn2)cc1`, in series [1], the inhibition at 50 µM was 67.5%. Besides, in series [2], the IC50 stood at 30.5 µM.

As to `CC(=O)OCc1cn(Cc2ccc3c(c2)C(=O)c2ccccc2C3=O)nn1`, the inhibition at 50 µM in series [1] stood at 19.4%.

On to `Oc1ncnc2[nH]ncc12` [ALLOPURINOL], for which the inhibition at 50 µM in series [1] is 95.1%.
